According to patent publication US20160193148A1, “LIPOSOMAL FORMULATIONS FOR THE TREATMENT OF BACTERIAL INFECTIONS” (UNIVERSITY OF GEORGIA RESEARCH FOUNDATION, INC., priority 2013, published 2016):

Test system: R. equi
Assay: Intracellular killing of R. equi in J774.A1 macrophages
Assay type: cell-based, Rhodococcus equi
Settings: 10 μg/mL; J774.A1 macrophages infected with virulent R. equi; 4 experiments
Experimental: The efficacy of liposomal gentamicin compared with clarithromycin or rifampin for intracellular killing of R. equi in J774.A1 macrophages were studies in this example. […] The final concentration of gentamicin in the liposome formulations was measured and the percentage of encapsulation was calculated.
In vitro infection of J774A.1 macrophages with virulent R. equi and subsequent treatment with liposomal gentamicin (G-DP or G-PEG), clarithromycin (CLR), or rifampin (RIF) at a concentration of 10 μg/mL was performed using a published methodology (i.e. Berghaus et al. Plasma pharmacokinetics, pulmonary distribution, and in vitro activity of gamithromycin in foals. J Vet Pharmacol Ther. 2012 February; 35(1):59-66). […] Fold reduction in the number of intracellular R. equi compared to untreated cells in J774.A1 macrophages infected with virulent R. equi are presented in FIG. 2, showing mean (±SD) of 4 independent experiments.

Compound: CO[C@H]1/C=C/O[C@@]2(C)Oc3c(C)c(O)c4c(O)c(c(/C=N/N5CCN(C)CC5)c(O)c4c3C2=O)NC(=O)/C(C)=C\C=C\[C@H](C)[C@H](O)[C@@H](C)[C@@H](O)[C@@H](C)[C@H](OC(C)=O)[C@@H]1C [RIF, rifampin]
- mean fold-reduction in the number of intracellular R. equi compared to untreated cells: 1500 fold

Compound: CC[C@H]1OC(=O)[C@H](C)[C@@H](O[C@H]2C[C@@](C)(OC)[C@@H](O)[C@H](C)O2)[C@H](C)[C@@H](O[C@@H]2O[C@H](C)C[C@H](N(C)C)[C@H]2O)[C@](C)(OC)C[C@@H](C)C(=O)[C@H](C)[C@@H](O)[C@]1(C)O [CLR, clarithromycin]
- mean fold-reduction in the number of intracellular R. equi compared to untreated cells: 1100 fold
